Results from PMC4979471 (Cell Death Discovery, 2015).
Like-named read-outs stand apart in the source and are kept apart here.

Assays:
Assay in all cases: Kinase selectivity, P33-radiolabeled assay
Assay type in all cases: biochemical
Conditions in all cases: 10 μM ATP
TESK1 = target: T1, TESK1 (Homo sapiens, UniProt Q15569)
T1 construct: purchased Reaction Biology Corp
Procedure, shortened: (§1)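 Duplicate single-concentration testing used 10 μM compound. The ATP concentration was also 10 μM.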

IKKb/IKBKB = target: T2, IKKb/IKBKB (Homo sapiens, UniProt O14920)
T2 construct: purchased Reaction Biology Corp
T2 sequence (O14920 1-756): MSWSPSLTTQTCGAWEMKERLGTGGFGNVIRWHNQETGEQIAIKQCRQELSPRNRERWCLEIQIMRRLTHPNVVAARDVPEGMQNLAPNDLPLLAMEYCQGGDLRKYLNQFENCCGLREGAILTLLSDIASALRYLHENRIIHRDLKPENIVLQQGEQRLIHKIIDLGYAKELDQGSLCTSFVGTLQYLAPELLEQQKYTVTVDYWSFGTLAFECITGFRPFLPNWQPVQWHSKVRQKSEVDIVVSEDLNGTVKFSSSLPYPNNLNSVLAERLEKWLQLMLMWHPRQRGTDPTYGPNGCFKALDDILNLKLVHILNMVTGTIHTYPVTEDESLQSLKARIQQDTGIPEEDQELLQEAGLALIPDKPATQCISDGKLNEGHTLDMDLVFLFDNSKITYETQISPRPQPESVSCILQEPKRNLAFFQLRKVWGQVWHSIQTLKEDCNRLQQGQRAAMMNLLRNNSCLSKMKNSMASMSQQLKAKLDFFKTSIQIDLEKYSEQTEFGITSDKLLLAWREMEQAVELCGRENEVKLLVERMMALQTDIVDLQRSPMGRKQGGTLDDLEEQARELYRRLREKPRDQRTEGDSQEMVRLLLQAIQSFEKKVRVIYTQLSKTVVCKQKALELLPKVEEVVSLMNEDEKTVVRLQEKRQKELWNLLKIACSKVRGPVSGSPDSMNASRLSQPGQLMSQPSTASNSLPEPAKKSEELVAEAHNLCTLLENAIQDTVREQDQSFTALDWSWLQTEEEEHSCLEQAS
Procedure, shortened: as §1

PKAcb = target: T3, PKAcb (Homo sapiens, UniProt P22694)
T3 construct: purchased Reaction Biology Corp
Procedure, shortened: as §1

BRK = target: T4, BRK (Homo sapiens, UniProt Q13882)
T4 construct: purchased Reaction Biology Corp
Procedure, shortened: as §1

FGFR1 = target: T5, FGFR1 (Homo sapiens, UniProt P11362)
T5 construct: purchased Reaction Biology Corp
Procedure, shortened: as §1

PAK6 = target: T6, PAK6 (Homo sapiens, UniProt Q9NQU5)
T6 construct: purchased Reaction Biology Corp
Procedure, shortened: as §1

CK1g1 = target: T7, CK1g1 (Homo sapiens, UniProt Q9HCP0)
T7 construct: purchased Reaction Biology Corp
Procedure, shortened: as §1

AKT3 = target: T8, AKT3 (Homo sapiens, UniProt Q9Y243)
T8 construct: purchased Reaction Biology Corp
Procedure, shortened: as §1

MYLK3 = target: T9, MYLK3 (Homo sapiens, UniProt Q32MK0)
T9 construct: purchased Reaction Biology Corp
T9 sequence (Q32MK0 1-819): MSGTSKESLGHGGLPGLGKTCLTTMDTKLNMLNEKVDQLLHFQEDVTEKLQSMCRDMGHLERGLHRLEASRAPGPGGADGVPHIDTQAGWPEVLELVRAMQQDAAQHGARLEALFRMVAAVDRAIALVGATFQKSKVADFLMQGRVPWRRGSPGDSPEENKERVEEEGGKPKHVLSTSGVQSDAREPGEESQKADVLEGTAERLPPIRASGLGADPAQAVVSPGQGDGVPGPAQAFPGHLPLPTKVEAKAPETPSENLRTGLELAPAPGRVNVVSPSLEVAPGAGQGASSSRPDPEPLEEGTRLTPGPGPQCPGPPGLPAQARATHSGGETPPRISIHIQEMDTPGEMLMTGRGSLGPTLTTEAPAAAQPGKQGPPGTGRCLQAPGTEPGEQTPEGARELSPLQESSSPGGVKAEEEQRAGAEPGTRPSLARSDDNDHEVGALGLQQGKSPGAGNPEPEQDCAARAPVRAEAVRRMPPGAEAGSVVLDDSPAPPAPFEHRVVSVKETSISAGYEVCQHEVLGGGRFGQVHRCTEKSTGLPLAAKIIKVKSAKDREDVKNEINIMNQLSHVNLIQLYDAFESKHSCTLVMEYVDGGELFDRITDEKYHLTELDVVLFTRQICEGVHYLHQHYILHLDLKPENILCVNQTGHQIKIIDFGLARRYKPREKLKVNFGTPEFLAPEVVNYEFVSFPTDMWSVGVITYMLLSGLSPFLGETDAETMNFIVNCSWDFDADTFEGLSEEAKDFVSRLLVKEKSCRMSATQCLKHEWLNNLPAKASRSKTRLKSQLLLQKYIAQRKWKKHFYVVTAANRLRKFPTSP
Procedure, shortened: as §1

PIM2 = target: T10, PIM2 (Homo sapiens, UniProt Q9P1W9)
T10 construct: purchased Reaction Biology Corp
Procedure, shortened: as §1

SIK2 = target: T11, SIK2 (Homo sapiens, UniProt Q9H0K1)
T11 construct: purchased Reaction Biology Corp
Procedure, shortened: as §1

MELK = target: T12, MELK (Homo sapiens, UniProt Q14680)
T12 construct: purchased Reaction Biology Corp
Procedure, shortened: as §1

IRAK1 = target: T13, IRAK1 (Homo sapiens, UniProt P51617)
T13 construct: purchased Reaction Biology Corp
Procedure, shortened: as §1

RSK3 = target: T14, RSK3 (Homo sapiens, UniProt Q15349)
T14 construct: purchased Reaction Biology Corp
Procedure, shortened: as §1

JNK3 = target: T15, JNK3 (Homo sapiens, UniProt P53779)
T15 construct: purchased Reaction Biology Corp
Procedure, shortened: as §1

[1] = read-out: % Enzyme Activity (relative to DMSO controls) AVG
[2] = read-out: % Enzyme Activity (relative to DMSO controls) Data 1
[3] = read-out: % Enzyme Activity (relative to DMSO controls) Data 2

T4 sequence (Q13882 whole entry): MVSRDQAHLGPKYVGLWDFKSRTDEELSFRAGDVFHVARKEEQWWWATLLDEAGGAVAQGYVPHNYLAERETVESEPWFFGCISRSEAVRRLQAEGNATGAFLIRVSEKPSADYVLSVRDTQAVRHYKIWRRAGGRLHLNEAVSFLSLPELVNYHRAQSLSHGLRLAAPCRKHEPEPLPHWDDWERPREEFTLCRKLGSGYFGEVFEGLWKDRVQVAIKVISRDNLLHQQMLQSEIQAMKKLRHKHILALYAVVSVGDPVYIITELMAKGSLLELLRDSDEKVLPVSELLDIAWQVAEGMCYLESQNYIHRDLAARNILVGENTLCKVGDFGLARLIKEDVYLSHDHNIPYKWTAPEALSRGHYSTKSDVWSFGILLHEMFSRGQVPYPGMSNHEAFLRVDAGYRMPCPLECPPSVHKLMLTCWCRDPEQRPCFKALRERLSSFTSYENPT
T13 sequence (P51617 whole entry): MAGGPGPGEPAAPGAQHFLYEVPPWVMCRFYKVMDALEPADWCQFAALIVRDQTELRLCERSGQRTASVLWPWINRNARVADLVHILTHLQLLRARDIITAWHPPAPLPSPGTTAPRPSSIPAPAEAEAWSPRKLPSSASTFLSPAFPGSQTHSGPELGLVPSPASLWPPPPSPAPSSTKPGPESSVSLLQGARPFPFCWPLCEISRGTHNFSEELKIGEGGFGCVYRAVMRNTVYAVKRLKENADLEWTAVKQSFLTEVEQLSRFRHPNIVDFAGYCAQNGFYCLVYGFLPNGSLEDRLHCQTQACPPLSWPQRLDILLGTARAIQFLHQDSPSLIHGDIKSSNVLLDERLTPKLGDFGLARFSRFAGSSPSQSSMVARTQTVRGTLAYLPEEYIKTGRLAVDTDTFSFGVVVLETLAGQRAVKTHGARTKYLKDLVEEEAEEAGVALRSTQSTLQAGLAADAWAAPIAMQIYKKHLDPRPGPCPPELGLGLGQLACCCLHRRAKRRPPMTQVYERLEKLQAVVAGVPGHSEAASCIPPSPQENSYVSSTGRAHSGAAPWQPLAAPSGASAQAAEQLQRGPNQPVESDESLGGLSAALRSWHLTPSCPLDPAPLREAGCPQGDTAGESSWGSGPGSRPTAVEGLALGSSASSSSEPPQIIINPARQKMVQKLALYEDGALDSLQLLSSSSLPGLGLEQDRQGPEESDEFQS
T1 sequence (Q15569 whole entry): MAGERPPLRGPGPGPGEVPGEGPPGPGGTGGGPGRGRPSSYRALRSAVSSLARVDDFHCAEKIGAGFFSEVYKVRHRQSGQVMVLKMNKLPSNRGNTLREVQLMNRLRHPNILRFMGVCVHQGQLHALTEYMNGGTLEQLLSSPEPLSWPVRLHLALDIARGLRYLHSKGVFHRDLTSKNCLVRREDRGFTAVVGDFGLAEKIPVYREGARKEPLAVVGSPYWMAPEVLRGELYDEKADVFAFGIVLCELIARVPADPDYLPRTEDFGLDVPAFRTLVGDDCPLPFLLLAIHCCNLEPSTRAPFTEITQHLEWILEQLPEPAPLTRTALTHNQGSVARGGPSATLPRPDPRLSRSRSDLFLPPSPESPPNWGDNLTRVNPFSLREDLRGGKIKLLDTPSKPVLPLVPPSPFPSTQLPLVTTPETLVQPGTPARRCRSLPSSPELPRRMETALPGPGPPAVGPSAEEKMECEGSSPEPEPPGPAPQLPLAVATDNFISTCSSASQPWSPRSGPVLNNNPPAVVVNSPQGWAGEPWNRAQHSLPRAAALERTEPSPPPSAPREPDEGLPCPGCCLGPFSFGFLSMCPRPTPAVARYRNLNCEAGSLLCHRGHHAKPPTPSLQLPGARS
T8 sequence (Q9Y243 whole entry): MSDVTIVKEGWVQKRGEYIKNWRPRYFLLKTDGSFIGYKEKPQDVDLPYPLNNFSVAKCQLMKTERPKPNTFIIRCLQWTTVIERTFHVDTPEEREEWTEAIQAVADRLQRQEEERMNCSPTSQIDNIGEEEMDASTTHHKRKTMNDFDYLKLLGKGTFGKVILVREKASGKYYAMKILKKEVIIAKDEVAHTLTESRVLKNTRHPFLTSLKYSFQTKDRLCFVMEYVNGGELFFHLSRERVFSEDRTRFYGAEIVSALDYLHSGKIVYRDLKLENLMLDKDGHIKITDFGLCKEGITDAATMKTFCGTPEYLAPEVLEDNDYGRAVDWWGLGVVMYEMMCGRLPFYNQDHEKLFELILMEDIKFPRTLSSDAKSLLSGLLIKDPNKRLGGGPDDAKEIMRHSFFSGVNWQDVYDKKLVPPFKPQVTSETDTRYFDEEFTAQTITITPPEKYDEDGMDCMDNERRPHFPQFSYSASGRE
T7 sequence (Q9HCP0 whole entry): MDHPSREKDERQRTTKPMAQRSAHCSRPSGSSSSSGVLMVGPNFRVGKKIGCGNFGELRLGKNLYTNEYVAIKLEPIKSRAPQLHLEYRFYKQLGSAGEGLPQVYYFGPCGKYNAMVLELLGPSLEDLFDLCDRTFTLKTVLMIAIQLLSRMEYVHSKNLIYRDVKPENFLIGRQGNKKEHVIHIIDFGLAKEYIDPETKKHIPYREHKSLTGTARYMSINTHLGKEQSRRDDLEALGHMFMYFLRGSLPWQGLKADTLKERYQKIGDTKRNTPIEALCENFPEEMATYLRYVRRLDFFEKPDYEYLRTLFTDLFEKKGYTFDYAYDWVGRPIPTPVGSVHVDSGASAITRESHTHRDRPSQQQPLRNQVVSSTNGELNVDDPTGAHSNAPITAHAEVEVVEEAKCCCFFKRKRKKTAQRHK
T12 sequence (Q14680 whole entry): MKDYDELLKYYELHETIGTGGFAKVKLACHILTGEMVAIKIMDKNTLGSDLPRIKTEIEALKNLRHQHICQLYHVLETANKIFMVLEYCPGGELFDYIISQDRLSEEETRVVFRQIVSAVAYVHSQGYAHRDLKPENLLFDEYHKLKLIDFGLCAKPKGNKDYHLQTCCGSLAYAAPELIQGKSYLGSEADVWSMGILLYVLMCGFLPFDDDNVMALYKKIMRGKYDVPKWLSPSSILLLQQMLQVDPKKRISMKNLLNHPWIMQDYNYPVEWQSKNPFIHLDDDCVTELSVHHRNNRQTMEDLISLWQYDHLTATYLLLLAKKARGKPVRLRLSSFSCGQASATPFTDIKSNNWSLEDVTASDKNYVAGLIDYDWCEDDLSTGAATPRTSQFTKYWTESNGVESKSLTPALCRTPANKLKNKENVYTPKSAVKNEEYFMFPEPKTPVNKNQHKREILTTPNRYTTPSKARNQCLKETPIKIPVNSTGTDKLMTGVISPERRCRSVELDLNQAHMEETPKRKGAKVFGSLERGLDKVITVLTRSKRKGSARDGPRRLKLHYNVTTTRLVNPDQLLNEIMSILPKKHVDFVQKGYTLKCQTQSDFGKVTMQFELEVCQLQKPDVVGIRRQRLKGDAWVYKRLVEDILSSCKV
T14 sequence (Q15349 whole entry): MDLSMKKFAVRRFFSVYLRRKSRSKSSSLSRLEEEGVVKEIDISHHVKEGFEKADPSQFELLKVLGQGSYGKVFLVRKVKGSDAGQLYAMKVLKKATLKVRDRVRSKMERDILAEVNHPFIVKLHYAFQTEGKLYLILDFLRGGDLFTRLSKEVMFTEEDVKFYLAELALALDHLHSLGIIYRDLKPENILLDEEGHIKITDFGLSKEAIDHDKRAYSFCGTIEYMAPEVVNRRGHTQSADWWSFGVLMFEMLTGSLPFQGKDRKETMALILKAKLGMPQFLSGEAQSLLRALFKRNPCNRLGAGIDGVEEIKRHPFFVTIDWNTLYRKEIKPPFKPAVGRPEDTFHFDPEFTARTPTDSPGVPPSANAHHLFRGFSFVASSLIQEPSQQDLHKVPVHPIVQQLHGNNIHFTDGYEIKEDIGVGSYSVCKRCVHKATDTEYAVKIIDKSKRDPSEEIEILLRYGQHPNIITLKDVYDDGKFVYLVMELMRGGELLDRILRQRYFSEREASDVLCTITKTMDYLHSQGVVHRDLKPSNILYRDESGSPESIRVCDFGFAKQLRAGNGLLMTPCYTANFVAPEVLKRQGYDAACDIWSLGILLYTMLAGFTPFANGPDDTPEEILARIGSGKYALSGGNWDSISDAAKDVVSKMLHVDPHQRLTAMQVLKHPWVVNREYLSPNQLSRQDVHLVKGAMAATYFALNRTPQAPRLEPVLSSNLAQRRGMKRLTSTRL
T6 sequence (Q9NQU5 whole entry): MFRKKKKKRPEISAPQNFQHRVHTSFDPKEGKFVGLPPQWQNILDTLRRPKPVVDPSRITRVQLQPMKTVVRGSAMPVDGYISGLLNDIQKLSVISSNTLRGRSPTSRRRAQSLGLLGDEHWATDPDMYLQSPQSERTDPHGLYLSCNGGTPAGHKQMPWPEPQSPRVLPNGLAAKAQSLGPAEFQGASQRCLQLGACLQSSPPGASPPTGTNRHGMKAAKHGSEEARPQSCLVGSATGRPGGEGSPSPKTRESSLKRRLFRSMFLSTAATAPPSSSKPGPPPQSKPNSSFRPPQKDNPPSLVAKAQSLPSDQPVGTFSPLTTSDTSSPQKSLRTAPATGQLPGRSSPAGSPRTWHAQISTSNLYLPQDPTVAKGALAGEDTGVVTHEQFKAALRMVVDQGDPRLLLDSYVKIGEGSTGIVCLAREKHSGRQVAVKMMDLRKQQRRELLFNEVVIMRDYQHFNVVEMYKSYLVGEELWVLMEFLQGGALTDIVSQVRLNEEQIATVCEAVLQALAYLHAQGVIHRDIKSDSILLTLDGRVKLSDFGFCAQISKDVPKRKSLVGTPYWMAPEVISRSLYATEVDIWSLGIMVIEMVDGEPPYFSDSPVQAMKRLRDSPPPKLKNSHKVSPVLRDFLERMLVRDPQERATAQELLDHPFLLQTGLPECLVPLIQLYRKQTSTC

CC(C)(C)C(=O)N1N=CC[C@H]1c1ccccc1 [GSK′963]
remaining activity at 10 µM (TESK1; [1]): 116%
remaining activity at 10 µM (TESK1; [2]): 112%
remaining activity at 10 µM (TESK1; [3]): 120%
remaining activity at 10 µM (IKKb/IKBKB; [1]): 111%
remaining activity at 10 µM (IKKb/IKBKB; [2]): 110%
remaining activity at 10 µM (IKKb/IKBKB; [3]): 112%
remaining activity at 10 µM (PKAcb; [1]): 111%
remaining activity at 10 µM (PKAcb; [2]): 110%
remaining activity at 10 µM (PKAcb; [3]): 113%
remaining activity at 10 µM (BRK; [1]): 93.2%
remaining activity at 10 µM (BRK; [2]): 96.2%
remaining activity at 10 µM (BRK; [3]): 90.2%
remaining activity at 10 µM (FGFR1; [1]): 95%
remaining activity at 10 µM (FGFR1; [2]): 95.2%
remaining activity at 10 µM (FGFR1; [3]): 94.8%
remaining activity at 10 µM (PAK6; [1]): 97.1%
remaining activity at 10 µM (PAK6; [2]): 99.6%
remaining activity at 10 µM (PAK6; [3]): 94.7%
remaining activity at 10 µM (CK1g1; [1]): 108%
remaining activity at 10 µM (CK1g1; [2]): 111%
remaining activity at 10 µM (CK1g1; [3]): 105%
remaining activity at 10 µM (AKT3; [1]): 102%
remaining activity at 10 µM (AKT3; [2]): 100%
remaining activity at 10 µM (AKT3; [3]): 103%
remaining activity at 10 µM (MYLK3; [1]): 102%
remaining activity at 10 µM (MYLK3; [2]): 99.7%
remaining activity at 10 µM (MYLK3; [3]): 105%
remaining activity at 10 µM (PIM2; [1]): 115%
remaining activity at 10 µM (PIM2; [2]): 112%
remaining activity at 10 µM (PIM2; [3]): 118%
remaining activity at 10 µM (SIK2; [1]): 96.7%
remaining activity at 10 µM (SIK2; [2]): 94.8%
remaining activity at 10 µM (SIK2; [3]): 98.6%
remaining activity at 10 µM (MELK; [1]): 104%
remaining activity at 10 µM (MELK; [2]): 105%
remaining activity at 10 µM (MELK; [3]): 103%
remaining activity at 10 µM (IRAK1; [1]): 115%
remaining activity at 10 µM (IRAK1; [2]): 114%
remaining activity at 10 µM (IRAK1; [3]): 116%
remaining activity at 10 µM (RSK3; [1]): 101%
remaining activity at 10 µM (RSK3; [2]): 102%
remaining activity at 10 µM (RSK3; [3]): 99.6%
remaining activity at 10 µM (JNK3; [1]): 100%
remaining activity at 10 µM (JNK3; [2]): 101%
remaining activity at 10 µM (JNK3; [3]): 100%
